The source of these data is patent US6352988B2, “Indane or dihydroindole derivatives” (H. Lundbeck A/S, priority 1996, dated 2002).

For data set [1], the target named is T1, dopamine D4 receptors in cloned human dopamine receptor subtype 4.2 membranes (Homo sapiens, UniProt P21917, DEL271-302).
T1 sequence (P21917 with tags, fused parts or gaps DEL271-302): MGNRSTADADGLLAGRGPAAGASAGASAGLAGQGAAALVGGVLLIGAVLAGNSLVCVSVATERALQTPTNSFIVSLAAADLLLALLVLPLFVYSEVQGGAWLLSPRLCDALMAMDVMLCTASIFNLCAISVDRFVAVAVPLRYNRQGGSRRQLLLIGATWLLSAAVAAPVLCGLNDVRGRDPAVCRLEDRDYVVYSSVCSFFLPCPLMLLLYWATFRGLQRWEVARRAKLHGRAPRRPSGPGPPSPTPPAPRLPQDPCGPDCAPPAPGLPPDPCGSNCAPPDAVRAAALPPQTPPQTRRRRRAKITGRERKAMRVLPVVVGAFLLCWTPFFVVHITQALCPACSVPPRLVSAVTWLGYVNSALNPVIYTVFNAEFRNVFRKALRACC
The data set can be described thus: 3H-YM-09151-2 binding (affinity for dopamine D4 receptors). The settings on record: 3H-YM-09151-2, cloned human D4.2 membranes; * means that the test result is preliminary; read-out: D4-bind. IC50. On the procedure:
By this method the inhibition by drugs of the binding of the dopamine D4 antagonist ^3H-YM-09151-2 to dopamine D4 receptors in cloned human dopamine receptor subtype 4.2 membranes is determined in vitro. Accordingly, this is a test for affinity for dopamine D4 receptors. The test is performed using a preparation of cloned dopamine D4 cell membranes CRM-016®, Dupharma A/S, Denmark, in accordance with the product specifications.

Broadly, the melting point is the temperature of the solid-liquid transition. In general, IC50 refers to the concentration that inhibits the measured activity by half. `Clc1ccc2c(C3CCN(CC4Cc5ccccc5C4)CC3)c[nH]c2c1Cl` [Compound 21d, 6,7-Dichloro-3-[1-(indan-2-ylmethyl)piperidin-4-yl]-1H-indole] yielded a melting point of 141 to 142 °C. In addition, in data set [1], the IC50 turned out to be 3.9 nM.
Taken in the same sequence, the figures for `c1ccc2c(c1)CC(CN1CCC(c3c[nH]c4cc5c(cc34)OCO5)CC1)C2` [Compound 21e, 3-[1-(Indan-2-ylmethyl)piperidin-4-yl]-5,6-methylenedioxy-1H-indole] were 187 to 188 °C and 23 nM.
The corresponding values for `Clc1ccc2c(C3CCN(CCC4Cc5ccccc5C4)CC3)c[nH]c2c1` [Compound 21f, 6-Chloro-3-[1-[2-(indan-2-yl)ethyl]piperidin-4-yl]-1H-indole] are 155 to 156 °C and 3.2 nM.
`Clc1ccc2c(C3CCN(CCCC4Cc5ccccc5C4)CC3)c[nH]c2c1` [Compound 21g, 6Chloro-3-[1-[3-(indan-2-yl)propan-1-yl]piperidin-4-yl]-1H-indole]: the melting point lay in the range of 134 to 135 °C. The half-maximal inhibitory concentration (IC50) in data set [1] was 7.2 nM.
As for `Clc1ccc2c(C3CCN(CCCCC4Cc5ccccc5C4)CC3)c[nH]c2c1` [Compound 21h, 6-Chloro-3-[1-[4-(indan-2-yl)butan-1-yl]piperidin-4-yl]-1H-indole], the melting point was in the range of 139 to 140 °C. Also, the IC50 in data set [1] was found to be 14 nM.
In turn, `C1=C(c2cc3ccccc3[nH]2)CCN(CCC2Cc3ccccc3C2)C1` [Compound 28c, 2-[1-[2-(Indan-2-yl)ethyl]-1,2,3,6-tetrahydropyridin-4-yl]-1H-indole] showed a melting point of 175 to 176 °C. Further, the concentration for half-maximal inhibition (IC50) in data set [1] worked out at 13 nM.
As for `c1ccc2c(c1)CC(CCN1CCC(n3ccc4ccccc43)CC1)C2` [Compound 29b, 1-[1-[2-(Indan-2-yl)ethyl]piperidin-4-yl]-1H-indole], the melting point is 80 to 81 °C. Besides, the IC50 in data set [1] was 2.2 nM.
